System: 519858-162-T-J1-PDC complex spheroid viability
Test: Anticancer human tumor 519858-162-T-J1-PDC patient-derived colon adenocarcinoma cell line growth inhibition [GQUAD]
Conditions: for IC50: curve of first compound; for viability, T/C: stronger effect = lower value; active = viability on the fitted dose curve at most 10% of control; inactive = the rest
Summary of the method: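 Tumor cells were grown as complex spheroids with HUVEC endothelial cells and mesenchymal stem cells as stroma. G-quadruplex stabilizers were combined with targeted agents over half-log dilutions from near the clinical Cmax, or from 10 microM.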

[1] = second compound 0.0316 µM, first compound 0.0316 µM
[2] = second compound 0.0316 µM, first compound 0.1 µM
[3] = second compound 0.0316 µM, first compound 0.316 µM
[4] = second compound 0.0316 µM, first compound 1 µM
[5] = second compound 0.0316 µM, first compound 3.16 µM
[6] = second compound 0.0316 µM, first compound 10 µM
[7] = second compound 0.1 µM, first compound 0.0316 µM
[8] = second compound 0.1 µM, first compound 0.1 µM
[9] = second compound 0.1 µM, first compound 0.316 µM
[10] = second compound 0.1 µM, first compound 1 µM
[11] = second compound 0.1 µM, first compound 3.16 µM
[12] = second compound 0.1 µM, first compound 10 µM
[13] = second compound 0.316 µM, first compound 0.0316 µM
[14] = second compound 0.316 µM, first compound 0.1 µM
[15] = second compound 0.316 µM, first compound 0.316 µM
[16] = second compound 0.316 µM, first compound 1 µM
[17] = second compound 0.316 µM, first compound 3.16 µM
[18] = second compound 0.316 µM, first compound 10 µM
[19] = second compound 1 µM, first compound 0.0316 µM
[20] = second compound 1 µM, first compound 0.1 µM
[21] = second compound 1 µM, first compound 0.316 µM
[22] = second compound 1 µM, first compound 1 µM
[23] = second compound 1 µM, first compound 3.16 µM
[24] = second compound 1 µM, first compound 10 µM
[25] = second compound 3.16 µM, first compound 0.0316 µM
[26] = second compound 3.16 µM, first compound 0.1 µM
[27] = second compound 3.16 µM, first compound 0.316 µM
[28] = second compound 3.16 µM, first compound 1 µM
[29] = second compound 3.16 µM, first compound 3.16 µM
[30] = second compound 3.16 µM, first compound 10 µM
[31] = second compound 10 µM, first compound 0.0316 µM
[32] = second compound 10 µM, first compound 0.1 µM
[33] = second compound 10 µM, first compound 0.316 µM
[34] = second compound 10 µM, first compound 1 µM
[35] = second compound 10 µM, first compound 3.16 µM
[36] = second compound 10 µM, first compound 10 µM
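Also: spheroids exposed to compounds for 7 days.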
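For viability, T/C in this document: 100% = DMSO vehicle control viability.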

Cc1cccc(N(C)C(=O)C2C(O)CCN2c2nc(C)cc(C(F)(F)F)c2C#N)c1 (stereo not drawn) + Cc1cnc(CNC(=O)c2c(=O)c3ccc(N4CCCN(C)CC4)nc3n3c2sc2ccccc23)cn1
inactive: viability, T/C [1] 87.7% | viability, T/C [2] 70.2% | viability, T/C [3] 62.9% | viability, T/C [4] 75.9% | viability, T/C [5] 70.7% | viability, T/C [6] 81.6% | viability, T/C [7] 67.2% | viability, T/C [8] 72.2% | viability, T/C [9] 76% | viability, T/C [10] 62% | viability, T/C [11] 50% | viability, T/C [12] 78.8% | viability, T/C [13] 82.5% | viability, T/C [14] 79.8% | viability, T/C [15] 59.8% | viability, T/C [16] 52.8% | viability, T/C [17] 65.5% | viability, T/C [18] 49.3% | viability, T/C [19] 71.6% | viability, T/C [20] 62.1% | viability, T/C [21] 52.4% | viability, T/C [22] 56.1% | viability, T/C [23] 50.5% | viability, T/C [24] 44.2% | viability, T/C [25] 48.9% | viability, T/C [26] 50% | viability, T/C [27] 45.5% | viability, T/C [28] 36.2% | viability, T/C [29] 46.1% | viability, T/C [30] 40.9% | viability, T/C [31] 50.6% | viability, T/C [32] 54.8% | viability, T/C [33] 44.4% | viability, T/C [34] 41.2% | viability, T/C [35] 43.2% | viability, T/C [36] 43.4%
0.0762 µM: IC50 (second compound 10 µM)
0.0342 µM: IC50 (second compound 3.16 µM)
1.98 µM: IC50 (second compound 1 µM)
> 10 µM: IC50 (second compound 0.0316 µM) | IC50 (second compound 0.1 µM) | IC50 (second compound 0.316 µM)

C#Cc1c(F)ccc2cc(O)cc(-c3ncc4c(N5CC6CCC(C5)N6)nc(OCC56CCCN5CC(F)C6)nc4c3F)c12 (stereo not drawn) + Cc1[nH]c2ccc(F)cc2c1-c1nc2c3cccnc3c3ncccc3c2[nH]1
inactive: viability, T/C [1] 103% | viability, T/C [2] 82.9% | viability, T/C [3] 92% | viability, T/C [4] 113% | viability, T/C [5] 72.3% | viability, T/C [6] 73.2% | viability, T/C [7] 111% | viability, T/C [8] 85.9% | viability, T/C [9] 126% | viability, T/C [10] 83.9% | viability, T/C [11] 68.3% | viability, T/C [12] 73% | viability, T/C [13] 104% | viability, T/C [14] 112% | viability, T/C [15] 87.5% | viability, T/C [16] 75.7% | viability, T/C [17] 106% | viability, T/C [18] 66.1% | viability, T/C [19] 79.4% | viability, T/C [20] 73.9% | viability, T/C [21] 104% | viability, T/C [22] 60.4% | viability, T/C [23] 106% | viability, T/C [24] 58.5% | viability, T/C [25] 86.5% | viability, T/C [26] 80% | viability, T/C [27] 79.7% | viability, T/C [28] 52.6% | viability, T/C [29] 76.7% | viability, T/C [30] 80.3% | viability, T/C [31] 78.3% | viability, T/C [32] 83.2% | viability, T/C [33] 76.3% | viability, T/C [34] 63.5% | viability, T/C [35] 52.3% | viability, T/C [36] 65.6%
> 10 µM: IC50 (second compound 0.0316 µM) | IC50 (second compound 0.1 µM) | IC50 (second compound 0.316 µM) | IC50 (second compound 1 µM) | IC50 (second compound 3.16 µM) | IC50 (second compound 10 µM)

COc1ccc([C@@H](O)c2cc(-c3ncnc4cc(N5CCOCC5)ccc34)c(F)cc2Cl)nn1 + CN(C)c1ccc(Nc2c3ccc(NC(=O)CCN4CCCC4)cc3nc3cc(NC(=O)CCN4CCCC4)ccc23)cc1
inactive: viability, T/C [1] 113% | viability, T/C [2] 130% | viability, T/C [3] 110% | viability, T/C [4] 82.1% | viability, T/C [5] 98% | viability, T/C [6] 97.7% | viability, T/C [7] 119% | viability, T/C [8] 90.7% | viability, T/C [9] 92.1% | viability, T/C [10] 148% | viability, T/C [11] 87.9% | viability, T/C [12] 127% | viability, T/C [13] 86.8% | viability, T/C [14] 108% | viability, T/C [15] 95.2% | viability, T/C [16] 92.5% | viability, T/C [17] 104% | viability, T/C [18] 85.8% | viability, T/C [19] 92.6% | viability, T/C [20] 75.7% | viability, T/C [21] 72% | viability, T/C [22] 88.7% | viability, T/C [23] 57.4% | viability, T/C [24] 82.2% | viability, T/C [25] 102% | viability, T/C [26] 65.1% | viability, T/C [27] 53.8% | viability, T/C [28] 66.3% | viability, T/C [29] 94.1% | viability, T/C [30] 83.5% | viability, T/C [31] 74.5% | viability, T/C [32] 95.2% | viability, T/C [33] 73.4% | viability, T/C [34] 86.1% | viability, T/C [35] 72.4% | viability, T/C [36] 88.4%
> 10 µM: IC50 (second compound 0.0316 µM) | IC50 (second compound 0.1 µM) | IC50 (second compound 0.316 µM) | IC50 (second compound 1 µM) | IC50 (second compound 3.16 µM) | IC50 (second compound 10 µM)

COc1cc(C2c3cc4c(cc3C(OC3OC5COC(C)OC5C(O)C3O)C3COC(=O)C23)OCO4)cc(OC)c1O (stereo not drawn) + Cc1[nH]c2ccc(F)cc2c1-c1nc2c3cccnc3c3ncccc3c2[nH]1
inactive: viability, T/C [1] 114% | viability, T/C [2] 99.6% | viability, T/C [3] 93.8% | viability, T/C [4] 124% | viability, T/C [5] 98.2% | viability, T/C [6] 64.6% | viability, T/C [7] 127% | viability, T/C [8] 130% | viability, T/C [9] 93.2% | viability, T/C [10] 89.8% | viability, T/C [11] 55.6% | viability, T/C [12] 60.4% | viability, T/C [13] 90.6% | viability, T/C [14] 109% | viability, T/C [15] 57.4% | viability, T/C [16] 86.5% | viability, T/C [17] 86.9% | viability, T/C [18] 78.4% | viability, T/C [19] 88.8% | viability, T/C [20] 75.8% | viability, T/C [21] 108% | viability, T/C [22] 75.9% | viability, T/C [23] 81% | viability, T/C [24] 71.4% | viability, T/C [25] 65.9% | viability, T/C [26] 76.9% | viability, T/C [27] 66.9% | viability, T/C [28] 75% | viability, T/C [29] 58.6% | viability, T/C [30] 80.3% | viability, T/C [31] 69.4% | viability, T/C [32] 63.4% | viability, T/C [33] 65.8% | viability, T/C [34] 68.5% | viability, T/C [35] 74.8% | viability, T/C [36] 82.7%
> 10 µM: IC50 (second compound 0.0316 µM) | IC50 (second compound 0.1 µM) | IC50 (second compound 0.316 µM) | IC50 (second compound 1 µM) | IC50 (second compound 3.16 µM) | IC50 (second compound 10 µM)

Source: PubChem BioAssay AID2060507 (Molecular Pharmacology Branch, DTP, NCI, 2025)
